Values quoted from earlier work as cited in PMC9516332 (Frontiers in Oncology, 2022).
Like-named read-outs stand apart in the source and are kept apart here.

What was measured:
Details in all cases: cited from earlier work
[1] = biological target: T1, panel of 255 wild-type kinases (Homo sapiens, UniProt O15264)
T1 sequence (O15264 1-365): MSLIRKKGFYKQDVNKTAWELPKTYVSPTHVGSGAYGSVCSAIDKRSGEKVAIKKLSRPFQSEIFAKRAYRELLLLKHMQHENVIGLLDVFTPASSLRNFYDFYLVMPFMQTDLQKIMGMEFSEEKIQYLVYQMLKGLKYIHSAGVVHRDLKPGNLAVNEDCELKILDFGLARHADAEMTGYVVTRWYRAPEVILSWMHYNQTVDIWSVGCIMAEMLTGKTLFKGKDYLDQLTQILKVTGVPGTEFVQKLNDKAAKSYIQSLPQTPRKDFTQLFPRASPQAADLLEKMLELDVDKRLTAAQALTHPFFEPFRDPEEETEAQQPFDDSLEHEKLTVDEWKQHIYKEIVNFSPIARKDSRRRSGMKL

[2] = biological target: T2, panel of 255 wild-type kinases (Homo sapiens, UniProt Q8TD19)
T2 sequence (Q8TD19 1-979): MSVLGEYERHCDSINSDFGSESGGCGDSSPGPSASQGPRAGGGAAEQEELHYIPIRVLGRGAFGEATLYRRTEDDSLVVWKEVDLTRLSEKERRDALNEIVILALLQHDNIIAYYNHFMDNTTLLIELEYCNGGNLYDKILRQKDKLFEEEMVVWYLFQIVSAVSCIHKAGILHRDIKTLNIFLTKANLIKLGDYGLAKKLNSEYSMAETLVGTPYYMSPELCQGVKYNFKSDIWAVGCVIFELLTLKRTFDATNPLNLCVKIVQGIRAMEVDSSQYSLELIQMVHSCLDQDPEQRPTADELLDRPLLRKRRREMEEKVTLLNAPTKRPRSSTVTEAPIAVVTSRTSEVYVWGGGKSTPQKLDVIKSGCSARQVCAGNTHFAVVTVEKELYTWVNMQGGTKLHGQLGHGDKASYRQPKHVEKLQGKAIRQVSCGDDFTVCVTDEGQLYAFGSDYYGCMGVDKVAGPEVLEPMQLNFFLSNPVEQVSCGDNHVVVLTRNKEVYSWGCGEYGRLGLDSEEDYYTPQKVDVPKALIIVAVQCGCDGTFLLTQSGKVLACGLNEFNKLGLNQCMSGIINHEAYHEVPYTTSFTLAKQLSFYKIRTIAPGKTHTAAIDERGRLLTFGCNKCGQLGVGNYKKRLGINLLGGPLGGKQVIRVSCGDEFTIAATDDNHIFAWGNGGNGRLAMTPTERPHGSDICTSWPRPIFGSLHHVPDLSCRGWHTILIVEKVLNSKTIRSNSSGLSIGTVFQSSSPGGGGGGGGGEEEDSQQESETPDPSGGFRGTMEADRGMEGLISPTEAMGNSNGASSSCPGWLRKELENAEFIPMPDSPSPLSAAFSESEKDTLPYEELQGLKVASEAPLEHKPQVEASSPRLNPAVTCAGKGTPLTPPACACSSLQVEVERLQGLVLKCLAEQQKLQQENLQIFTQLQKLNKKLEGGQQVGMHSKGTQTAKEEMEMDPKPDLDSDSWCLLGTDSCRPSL

[3] = biological target: panel of 255 wild-type kinases (Homo sapiens, UniProt P09769)
[4] = biological target: T3, panel of 255 wild-type kinases (Homo sapiens, UniProt Q9UF33)
T3 sequence (Q9UF33 23-1036): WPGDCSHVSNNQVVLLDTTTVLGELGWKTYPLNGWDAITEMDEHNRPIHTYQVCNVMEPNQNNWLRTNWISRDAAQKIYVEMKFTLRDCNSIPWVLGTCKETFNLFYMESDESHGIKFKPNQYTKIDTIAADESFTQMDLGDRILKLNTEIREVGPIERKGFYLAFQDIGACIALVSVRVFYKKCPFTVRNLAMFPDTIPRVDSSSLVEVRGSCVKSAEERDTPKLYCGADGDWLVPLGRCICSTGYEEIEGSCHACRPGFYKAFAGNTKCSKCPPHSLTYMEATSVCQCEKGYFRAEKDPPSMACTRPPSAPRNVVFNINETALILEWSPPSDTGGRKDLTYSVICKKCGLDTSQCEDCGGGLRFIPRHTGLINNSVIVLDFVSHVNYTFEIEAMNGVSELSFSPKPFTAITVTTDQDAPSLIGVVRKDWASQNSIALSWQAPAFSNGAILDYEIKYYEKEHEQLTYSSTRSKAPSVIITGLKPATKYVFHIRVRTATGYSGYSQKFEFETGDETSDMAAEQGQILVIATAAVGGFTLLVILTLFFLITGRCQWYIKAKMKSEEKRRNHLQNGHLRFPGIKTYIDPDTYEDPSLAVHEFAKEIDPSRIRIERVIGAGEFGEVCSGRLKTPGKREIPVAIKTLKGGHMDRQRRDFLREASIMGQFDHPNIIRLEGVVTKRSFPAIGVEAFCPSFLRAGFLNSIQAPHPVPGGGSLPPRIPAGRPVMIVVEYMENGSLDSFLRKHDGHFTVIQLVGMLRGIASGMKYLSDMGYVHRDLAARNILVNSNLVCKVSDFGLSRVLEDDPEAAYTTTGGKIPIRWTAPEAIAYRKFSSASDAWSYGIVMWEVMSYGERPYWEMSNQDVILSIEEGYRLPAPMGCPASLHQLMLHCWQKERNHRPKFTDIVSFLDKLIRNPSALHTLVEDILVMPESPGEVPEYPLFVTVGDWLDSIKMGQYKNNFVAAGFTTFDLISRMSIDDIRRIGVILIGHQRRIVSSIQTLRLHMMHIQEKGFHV

[5] = biological target: panel of 255 wild-type kinases (Homo sapiens, UniProt P51617)
[6] = p38δ, 1 µmol/L single concentration, ref DOI: 10.1371/journal.pone.0092146
[7] = NEK9, 1 µmol/L single concentration, ref DOI: 10.1371/journal.pone.0092146
[8] = kinase FGR, 1 µmol/L single concentration, ref DOI: 10.1371/journal.pone.0092146
[9] = kinase EPHA6, 1 µmol/L single concentration, ref DOI: 10.1371/journal.pone.0092146
[10] = kinase IRAK1, 1 µmol/L single concentration, ref DOI: 10.1371/journal.pone.0092146
[11] = p38δ, 1 µmol/L single concentration, ref DOI: 10.1158/1535-7163.MCT-18-0877
[12] = NEK9, 1 µmol/L single concentration, ref DOI: 10.1158/1535-7163.MCT-18-0877
[13] = kinase FGR, 1 µmol/L single concentration, ref DOI: 10.1158/1535-7163.MCT-18-0877
[14] = kinase EPHA6, 1 µmol/L single concentration, ref DOI: 10.1158/1535-7163.MCT-18-0877
[15] = kinase IRAK1, 1 µmol/L single concentration, ref DOI: 10.1158/1535-7163.MCT-18-0877

| Structure (SMILES) | %-inhibition, p38δ [1, 6] | %-inhibition, NEK9 [2, 7] | %-inhibition at 1 µmol/L, FGR [3, 8] | %-inhibition at 1 µmol/L, EPHA6 [4, 9] | %-inhibition at 1 µmol/L, IRAK1 [5, 10] | %-inhibition, p38δ [1, 11] | %-inhibition, NEK9 [2, 12] | %-inhibition at 1 µmol/L, FGR [3, 13] | %-inhibition at 1 µmol/L, EPHA6 [4, 14] | %-inhibition at 1 µmol/L, IRAK1 [5, 15] | other results |
| --- | --- | --- | --- | --- | --- | --- | --- | --- | --- | --- | --- |
| CCCS(=O)(=O)Nc1ccc(F)c(C(=O)c2c[nH]c3ncc(-c4ccc(Cl)cc4)cc23)c1F [vemurafenib] | 8% | -2.2% | 93% | 37% | 10% |  |  |  |  |  |  |
| CC(=O)Nc1cccc(-n2c(=O)n(C3CC3)c(=O)c3c(Nc4ccc(I)cc4F)n(C)c(=O)c(C)c32)c1 [trametinib] | -2.7% | -3% | -9% | -2.51% | 6% |  |  |  |  |  |  |
| CCc1cc2c(cc1N1CCC(N3CCOCC3)CC1)C(C)(C)c1[nH]c3cc(C#N)ccc3c1C2=O [alectinib] |  |  |  |  |  | 0.128% | 0.368% | 40% | 0.529% | 92% |  |
| CC(C)(C)c1nc(-c2cccc(NS(=O)(=O)c3c(F)cccc3F)c2F)c(-c2ccnc(N)n2)s1 [dabrafenib] | -3.43% | 101% | 82% | 88% | -48% |  |  |  |  |  |  |
| CC#CC(=O)N1CCC[C@H]1c1nc(-c2ccc(C(=O)Nc3ccccn3)cc2)c2c(N)nccn12 [acalabrutinib] |  |  |  |  |  | -1.74% | -3.18% | 3% | -2.37% | -7% |  |
| O=C(c1ccc(F)c(F)c1Nc1ccc(I)cc1F)N1CC(O)([C@@H]2CCCCN2)C1 [cobimetinib] |  |  |  |  |  | -6% | -2.32% | -1.29% | 1.6% | 0.65% |  |
| C=CC(=O)Nc1cc(Nc2nccc(-c3cn(C)c4ccccc34)n2)c(OC)cc1N(C)CCN(C)C [osimertinib] |  |  |  |  |  | -5.38% | 9% | 5.61% | 2.33% | 7% |  |
| Cc1cc(Nc2ncc(Cl)c(Nc3ccccc3S(=O)(=O)C(C)C)n2)c(OC(C)C)cc1C1CCNCC1 [ceritinib] |  |  |  |  |  | 3% | 9% | 5% | 29% | 9% |  |
| CO[C@@H]1[C@H](N(C)C(=O)c2ccccc2)C[C@H]2O[C@]1(C)n1c3ccccc3c3c4c(c5c6ccccc6n2c5c31)C(=O)NC4 [midostaurin] |  |  |  |  |  | 3.36% | 48% | 93% | 19% | 10% |  |
| COc1cc(N2CCC(N3CCN(C)CC3)CC2)ccc1Nc1ncc(Cl)c(Nc2ccccc2P(C)(C)=O)n1 [brigatinib] |  |  |  |  |  |  |  |  |  |  | %-inhibition, p38δ [1]: 0.87%; %-inhibition, NEK9 [2]: 70%; %-inhibition at 1 µmol/L, FGR [3]: 52%; %-inhibition at 1 µmol/L, EPHA6 [4]: 20%; %-inhibition at 1 µmol/L, IRAK1 [5]: 69% |
| C=CC(=O)N1CCC[C@@H](n2nc(-c3ccc(Oc4ccccc4)cc3)c3c(N)ncnc32)C1 [ibrutinib] |  |  |  |  |  | -3.68% | -3.28% | 99% | 93% | -11% |  |
| C[C@@H](Oc1cc(-c2cnn(C3CCNCC3)c2)cnc1N)c1c(Cl)ccc(F)c1Cl [crizotinib] | -3.41% | 57% | 70% | 100% | 92% |  |  |  |  |  |  |
